Assay results as given in the supplement of paper PMC10307832.

Tests used:
Assay in all cases: relative viability (nuclei count vs DMSO), 5 days (fraction); higher = more cells survive
[1] = compound: CC1CC(=O)N(C2=CN=C(N=C2N1C3CCCC3)NC4=C(C=C(C=C4)C(=O)NC5CCN(CC5)C)OC)C [NPK76-II-72-1] + C[C@@H](Oc1cc(-c2cnn(C3CCNCC3)c2)cnc1N)c1c(Cl)ccc(F)c1Cl [Crizotinib] (partner 1 µM)
In short: (§1)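 Lung cancer cell lines were pin-tool dosed in 1536-well plates on the day after seeding, with either a lone drug or a fixed anchor-drug dose plus five library-drug doses (not always all listed) in √10 steps. Nuclei were counted on 4× images after 5 days. Relative viability is the ratio of treated-well to vehicle-well nuclei counts, with each value a median of duplicate plates.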

BI-2536 + Luminespib = compound: CC[C@@H]1C(=O)N(C)c2cnc(Nc3ccc(C(=O)NC4CCN(C)CC4)cc3OC)nc2N1C1CCCC1 [BI-2536] + CCNC(=O)c1noc(-c2cc(C(C)C)c(O)cc2O)c1-c1ccc(CN2CCOCC2)cc1 [Luminespib] (partner 0.01 µM)
In short: as §1

BI-2536 + Navitoclax = compound: CC[C@@H]1C(=O)N(C)c2cnc(Nc3ccc(C(=O)NC4CCN(C)CC4)cc3OC)nc2N1C1CCCC1 [BI-2536] + CC1(C)CCC(c2ccc(Cl)cc2)=C(CN2CCN(c3ccc(C(=O)NS(=O)(=O)c4ccc(N[C@H](CCN5CCOCC5)CSc5ccccc5)c(S(=O)(=O)C(F)(F)F)c4)cc3)CC2)C1 [Navitoclax] (partner 0.5 µM)
In short: as §1

BI-2536 + Dasatinib = compound: CC[C@@H]1C(=O)N(C)c2cnc(Nc3ccc(C(=O)NC4CCN(C)CC4)cc3OC)nc2N1C1CCCC1 [BI-2536] + Cc1nc(Nc2ncc(C(=O)Nc3c(C)cccc3Cl)s2)cc(N2CCN(CCO)CC2)n1 [Dasatinib] (partner 0.075 µM)
In short: as §1

Cell Line | relative viability ([1]; first compound 0.01 µM) | relative viability ([1]; first compound 0.03162 µM) | relative viability ([1]; first compound 0.1 µM) | relative viability ([1]; first compound 0.3162 µM) | relative viability ([1]; first compound 1 µM) | relative viability (BI-2536 + Luminespib; first compound 0.03162 µM) | relative viability (BI-2536 + Luminespib; first compound 0.1 µM) | relative viability (BI-2536 + Luminespib; first compound 0.3162 µM) | relative viability (BI-2536 + Luminespib; first compound 1 µM) | relative viability (BI-2536 + Navitoclax; first compound 0.01 µM) | relative viability (BI-2536 + Navitoclax; first compound 0.03162 µM) | relative viability (BI-2536 + Navitoclax; first compound 0.1 µM) | relative viability (BI-2536 + Navitoclax; first compound 0.3162 µM) | relative viability (BI-2536 + Navitoclax; first compound 1 µM) | relative viability (BI-2536 + Dasatinib; first compound 0.03162 µM) | relative viability (BI-2536 + Dasatinib; first compound 0.1 µM) | relative viability (BI-2536 + Dasatinib; first compound 0.3162 µM) | relative viability (BI-2536 + Dasatinib; first compound 1 µM) | relative viability (BI-2536 + Luminespib; first compound 0.01 µM) | relative viability (BI-2536 + Dasatinib; first compound 0.01 µM)
NCI-H2347 | 0.742 | 0.698 | 0.715 | 0.718 | 0.944 | 0.517 | 0.41 | 0.378 | 0.272 | 0.759 | 0.742 | 0.744 | 0.358 | 0.326 | 0.293 | 0.285 | 0.278 | 0.167 |  | 
NCI-H2405 | 0.863 | 0.951 | 0.816 | 0.798 | 0.855 | 0.435 | 0.359 | 0.283 | 0.31 | 0.7 | 0.218 | 0.106 | 0.0606 | 0.116 | 0.214 | 0.178 | 0.102 | 0.177 | 0.599 | 0.19
NCI-H3122 | 0.268 | 0.272 | 0.282 | 0.294 | 0.329 | 0.0932 | 0.107 | 0.0899 | 0.0757 | 1 | 0.991 | 0.525 | 0.233 | 0.241 | 0.878 | 0.158 | 0.0979 | 0.104 | 0.11 | 0.813
PC-3 [JPC-3] | 0.943 | 0.958 | 0.998 | 0.938 | 0.995 | 0.683 | 0.496 | 0.215 | 0.205 | 0.849 | 0.774 | 0.743 | 0.319 | 0.212 | 0.925 | 0.879 | 0.266 | 0.188 | 0.705 | 1.02
PC-14 | 0.872 | 0.944 | 0.904 | 0.809 | 1.03 | 0.171 | 0.111 | 0.107 | 0.108 | 1.05 | 1.06 | 0.902 | 0.0528 | 0.0559 |  | 0.0367 | 0.0318 | 0.0158 | 0.116 | 0.269
RERF-LC-KJ | 0.808 | 0.644 | 0.771 | 0.728 | 0.868 | 0.614 | 0.26 | 0.306 | 0.303 | 0.861 | 0.827 | 0.727 | 0.186 | 0.263 | 0.574 | 0.234 | 0.189 | 0.217 | 1.28 | 0.746
SK-LU-1 | 0.812 | 1.07 | 0.93 | 0.859 | 0.981 | 0.2 | 0.167 | 0.174 | 0.169 | 0.738 | 0.894 | 0.52 | 0.118 | 0.139 | 0.143 | 0.108 | 0.113 | 0.099 | 0.216 | 0.176
SK-MES-1 | 0.967 | 0.999 | 1.01 | 0.956 | 1.02 | 0.698 | 0.23 | 0.219 | 0.195 | 1.21 | 1.37 | 1.14 | 0.126 | 0.139 | 0.336 | 0.134 | 0.115 | 0.136 | 0.802 | 0.415
SW 1573 | 0.637 | 0.891 | 0.77 | 0.686 | 0.912 | 0.117 | 0.152 | 0.122 | 0.0874 | 1.04 | 1.05 | 1.05 | 0.0673 | 0.0547 | 0.222 | 0.0892 | 0.0839 | 0.0938 | 0.123 | 0.563
